Measurements reported in US4352792A, “3-Alkoxyflavone antiviral agents” (priority 1979, dated 1982).
Values after ≈ are worked out from the molar mass of the structure shown. Where two headings read alike, the source gives them in different places.

Legend:
rhinovirus HGP = test: Inhibition of viral cytopathogenic effect in HeLa cells (rhinovirus HGP); format: cell-based; conditions: Enterovirus, 48 h, read-out: IC50 rhinovirus HGP
Coxsackie virus B1 [1] = tested on: Coxsackie virus B1
influenzavirus A2/Adachi = test: Anti-influenzavirus activity in mice; conditions: up to 21 days; for Survivals: survivors/total
Coxsackie virus B1 [2] = test: Inhibition of viral cytopathogenic effect in HeLa cells (Coxsackie virus B1); format: cell-based; conditions: 24 h, read-out: IC50 Coxsackie virus B1
Coxsackie virus B1 [3] = test: Anti-Coxsackie virus activity, lethal infection in mice
acute toxicity in mice = conditions: mouse, in vivo, day 21
[4] = 50% inhibition of viral c.p.e., HeLa cells, 2 days at 33° C.
[5] = Mus musculus, ip, 504 h, read-out: Survival
[6] = Mus musculus, po, 504 h, read-out: Survival
[7] = ip, single dose i.p., dissolved in dimethyl sulfoxide, read-out: LD50 i.p.
[8] = po, single dose p.o., suspended in 0.5% carboxymethylcellulose, read-out: LD50 p.o.
[9] = 50% inhibition of viral c.p.e., HeLa cells, 1 day at 37° C.
[10] = Mus musculus, iv, 504 h, read-out: Survival

COc1cc(OC(C)=O)c2c(=O)c(OC)c(-c3ccc(OC(C)=O)c(OC)c3)oc2c1
IC50 (rhinovirus HGP; [4]): 0.1 to 0.2 µg/mL (≈ 0.233 to 0.467 µM) | Survivors/total (Coxsackie virus B1 [1]; 10 mg/kg × 9 orally, infection 2.5x LD50, day 21): 2/7 | Survivors/total (Coxsackie virus B1 [1]; 10 mg/kg × 9 orally, infection 10x LD50, day 21): 1/7 | Survivors/total (Coxsackie virus B1 [1]; 10 mg/kg × 9 orally, infection 40x LD50, day 21): 0/7 | Survivors/total (Coxsackie virus B1 [1]; 10 mg/kg × 9 orally, infection 160x LD50, day 21): 0/7 | Survivors/total (Coxsackie virus B1 [1]; 20 mg/kg × 9 orally, infection 2.5x LD50, day 21): 3/7 | Survivors/total (Coxsackie virus B1 [1]; 20 mg/kg × 9 orally, infection 10x LD50, day 21): 2/7 | Survivors/total (Coxsackie virus B1 [1]; 20 mg/kg × 9 orally, infection 40x LD50, day 21): 1/7 | Survivors/total (Coxsackie virus B1 [1]; 20 mg/kg × 9 orally, infection 160x LD50, day 21): 1/7 | Survivors/total (Coxsackie virus B1 [1]; 40 mg/kg × 9 orally, infection 2.5x LD50, day 21): 4/7 | Survivors/total (Coxsackie virus B1 [1]; 40 mg/kg × 9 orally, infection 10x LD50, day 21): 3/7 | Survivors/total (Coxsackie virus B1 [1]; 40 mg/kg × 9 orally, infection 40x LD50, day 21): 2/7 | Survivors/total (Coxsackie virus B1 [1]; 40 mg/kg × 9 orally, infection 160x LD50, day 21): 2/7 | Survivals (influenzavirus A2/Adachi; 20 mg/kg × 9, i.p.): 2/7 | Survivals (%) (influenzavirus A2/Adachi; 20 mg/kg × 9, i.p.): 29% | Survivals (influenzavirus A2/Adachi; 40 mg/kg × 9, i.p.): 3/8 | Survivals (%) (influenzavirus A2/Adachi; 40 mg/kg × 9, i.p.): 38% | IC50 (Coxsackie virus B1 [2]; HeLa): 0.1 to 0.2 µg/mL (≈ 0.233 to 0.467 µM) | Survival (Coxsackie virus B1 [3]; 40 mg/kg × 9, p.o., up to 21 days): 50% | responders at 10 mg/kg (Coxsackie virus B1 [3]; [5]): 54% | responders at 20 mg/kg (Coxsackie virus B1 [3]; [5]): 67% | responders at 20 mg/kg (Coxsackie virus B1 [3]; [6]): 20% | responders at 40 mg/kg (Coxsackie virus B1 [3]; [6]): 50% | responders at 80 mg/kg (Coxsackie virus B1 [3]; [6]): 60% | LD50 at 504 h (acute toxicity in mice; [7]): > 1000 mg/kg | LD50 at 504 h (acute toxicity in mice; [8]): > 5000 mg/kg

COc1cc(O)c2c(=O)c(OC)c(-c3ccc(OC)c(O)c3)oc2c1 [3',5-dihydroxy-3,4',7-trimethoxyflavone]
IC50 (rhinovirus HGP; [4]): 3 µg/mL (≈ 8.71 µM) | IC50 (Coxsackie virus B1 [2]; [9]): 3 to 10 µg/mL (≈ 8.71 to 29 µM)

COc1cc(OC(=O)c2cccnc2)c2c(=O)c(OC)c(-c3ccc(OC(=O)c4cccnc4)c(OC)c3)oc2c1 [3,3',7-trimethoxy-4',5-bis-(nicotinoyloxy)-flavone]
IC50 (rhinovirus HGP; [4]): 0.3 to 1 µg/mL (≈ 0.541 to 1.8 µM) | IC50 (Coxsackie virus B1 [2]; [9]): 0.3 to 1 µg/mL (≈ 0.541 to 1.8 µM) | responders at 10 mg/kg (Coxsackie virus B1 [3]; [6]): 40% | responders at 20 mg/kg (Coxsackie virus B1 [3]; [6]): 30%

CCC(=O)Oc1ccc(-c2oc3cc(OC)cc(OC(=O)CC)c3c(=O)c2OC)cc1OC [3,3',7-trimethoxy-4',5-bis-(propionyloxy)-flavone]
IC50 (rhinovirus HGP; [4]): 0.1 to 0.2 µg/mL (≈ 0.219 to 0.438 µM) | IC50 (Coxsackie virus B1 [2]; [9]): 0.1 to 1.2 µg/mL (≈ 0.219 to 2.63 µM)

CCOc1c(-c2ccc(O)c(OC)c2)oc2cc(OC)cc(O)c2c1=O [3-ethoxy-4',5-dihydroxy-3',7-dimethoxyflavone]
IC50 (rhinovirus HGP; [4]): 0.05 to 0.1 µg/mL (≈ 0.14 to 0.279 µM) | IC50 (Coxsackie virus B1 [2]; [9]): 0.05 to 0.1 µg/mL (≈ 0.14 to 0.279 µM)

CCOC(=O)Oc1ccc(-c2oc3cc(OC)cc(OC(=O)OCC)c3c(=O)c2OC)cc1OC [4',5-bis-(ethoxycarbonyloxy)-3,3',7-trimethoxyflavone]
IC50 (rhinovirus HGP; [4]): 0.3 to 1 µg/mL (≈ 0.614 to 2.05 µM) | IC50 (Coxsackie virus B1 [2]; [9]): 0.3 to 1 µg/mL (≈ 0.614 to 2.05 µM) | responders at 10 mg/kg (Coxsackie virus B1 [3]; [6]): 30% | responders at 20 mg/kg (Coxsackie virus B1 [3]; [6]): 30%

COc1cc(O)c2c(=O)c(OC)c(-c3ccc(O)cc3OC)oc2c1 [4',5-dihydroxy-2,',3,7-trimethoxyflavone, 4',5-dihydroxy-2',3,7-trimethoxyflavone]
IC50 (rhinovirus HGP; [4]): 0.3 µg/mL (≈ 0.871 µM) | IC50 (Coxsackie virus B1 [2]; [9]): 1 to 3 µg/mL (≈ 2.9 to 8.71 µM)

COc1cc(O)c2c(=O)c(OC(C)C)c(-c3ccc(O)c(OC)c3)oc2c1 [4',5-dihydroxy-3-isopropoxy-3',7-dimethoxyflavone]
IC50 (rhinovirus HGP; [4]): 0.05 to 0.1 µg/mL (≈ 0.134 to 0.269 µM) | IC50 (Coxsackie virus B1 [2]; [9]): 0.05 to 0.1 µg/mL (≈ 0.134 to 0.269 µM)

COc1cc(O)c2c(=O)c(OC)c(-c3ccc(OC(=O)C(O)C(O)C(=O)O)c(OC)c3)oc2c1 (centres unmarked) [4'-(3-carboxy-2,3-dihydroxypropionyloxy)-5-hydroxy-3,3',7-trimethoxyflavone]
IC50 (rhinovirus HGP; [4]): 0.1 to 0.2 µg/mL (≈ 0.21 to 0.42 µM) | IC50 (Coxsackie virus B1 [2]; [9]): 0.1 to 0.2 µg/mL (≈ 0.21 to 0.42 µM)

COc1cc(O)c2c(=O)c(OC)c(-c3ccc(OC(=O)[C@H](C)N)c(OC)c3)oc2c1 [4'-(L-alanyloxy)-5-hydroxy-3,3',7-trimethoxyflavone]
IC50 (rhinovirus HGP; [4]): 0.5 µg/mL (≈ 1.2 µM) | IC50 (Coxsackie virus B1 [2]; HeLa): 0.25 to 0.5 µg/mL (≈ 0.602 to 1.2 µM) | responders at 10 mg/kg (Coxsackie virus B1 [3]; [10]): 42% | LD50 at 504 h (acute toxicity in mice; [7]): > 1000 mg/kg | LD50 at 504 h (acute toxicity in mice; [8]): > 5000 mg/kg

COc1cc(O)c2c(=O)c(OC)c(-c3ccc(OC(=O)[C@@H](N)CCC(N)=O)c(OC)c3)oc2c1 [4'-(L-glutaminyloxy)-5-hydroxy-3,3',7-trimethoxyflavone]
IC50 (rhinovirus HGP; [4]): 0.25 to 0.5 µg/mL (≈ 0.529 to 1.06 µM) | IC50 (Coxsackie virus B1 [2]; HeLa): 0.25 to 0.5 µg/mL (≈ 0.529 to 1.06 µM) | responders at 10 mg/kg (Coxsackie virus B1 [3]; [10]): 54% | LD50 at 504 h (acute toxicity in mice; [7]): > 1000 mg/kg | LD50 at 504 h (acute toxicity in mice; [8]): > 5000 mg/kg

COc1cc(O)c2c(=O)c(OC)c(-c3ccc(OC(=O)[C@@H](N)CCC(=O)O)c(OC)c3)oc2c1 [4'-(L-α-glutamyloxy)-5-hydroxy-3,3',7-trimethoxyflavone]
IC50 (rhinovirus HGP; [4]): 0.25 µg/mL (≈ 0.528 µM) | IC50 (Coxsackie virus B1 [2]; [9]): 0.25 to 0.5 µg/mL (≈ 0.528 to 1.06 µM)

COc1cc(O)c2c(=O)c(OC)c(-c3ccc(O[C@@H]4O[C@H](CO)[C@@H](O)[C@H](O)[C@H]4O)c(OC)c3)oc2c1 [4'-(β-D-glucopyranosyloxy)-5-hydroxy-3,3',7-trimethoxyflavone]
IC50 (rhinovirus HGP; [4]): 0.25 µg/mL (≈ 0.494 µM) | IC50 (Coxsackie virus B1 [2]; [9]): 0.25 to 0.5 µg/mL (≈ 0.494 to 0.987 µM)

COc1cc(O)c2c(=O)c(OC)c(-c3ccc(OC(C)=O)c(OC)c3)oc2c1 [4'-acetoxy-5-hydroxy-3,3',7-trimethoxyflavone]
IC50 (rhinovirus HGP; [4]): 0.5 µg/mL (≈ 1.29 µM) | IC50 (Coxsackie virus B1 [2]; [9]): 0.25 to 0.5 µg/mL (≈ 0.647 to 1.29 µM)

COc1c(-c2ccc(N)cc2)oc2cc(O)cc(O)c2c1=O [4'-amino-5,7-dihydroxy-3-methoxyflavone]
IC50 (rhinovirus HGP; [4]): 1 to 3 µg/mL (≈ 3.34 to 10 µM) | IC50 (Coxsackie virus B1 [2]; [9]): 3 to 10 µg/mL (≈ 10 to 33.4 µM)

COc1cc(O)c2c(=O)c(OC)c(-c3ccc(N)cc3)oc2c1 [4'-amino-5-hydroxy-3,7-dimethoxyflavone]
IC50 (rhinovirus HGP; [4]): 3 µg/mL (≈ 9.58 µM) | IC50 (Coxsackie virus B1 [2]; [9]): 10 to 30 µg/mL (≈ 31.9 to 95.8 µM)

COc1cc(OC)c2c(=O)c(OC)c(-c3ccc(O)c(OC)c3)oc2c1 [4'-hydroxy-3,3',5,7-tetramethoxyflavone]
IC50 (rhinovirus HGP; [4]): 2 to 7 µg/mL (≈ 5.58 to 19.5 µM) | IC50 (Coxsackie virus B1 [2]; [9]): 6 to 7 µg/mL (≈ 16.7 to 19.5 µM)

COc1ccc(-c2oc3cc(O)cc(O)c3c(=O)c2OC)cc1 [5,7-dihydroxy-3,4'-dimethoxyflavone]
IC50 (rhinovirus HGP; HeLa): 0.5 µg/mL (≈ 1.59 µM) | IC50 (Coxsackie virus B1 [2]; HeLa): > 4 µg/mL

COc1cc(OC(=O)C(C)C)c2c(=O)c(OC)c(-c3ccc(OC(=O)C(C)(C)C)c(OC)c3)oc2c1 [5-(isobutyryloxy)-3,3',7-trimethoxy-4'-(pivaloyloxy)-flavone]
IC50 (rhinovirus HGP; [4]): 0.3 µg/mL (≈ 0.602 µM) | IC50 (Coxsackie virus B1 [2]; [9]): 0.3 to 1 µg/mL (≈ 0.602 to 2.01 µM) | responders at 10 mg/kg (Coxsackie virus B1 [3]; [6]): 30% | responders at 20 mg/kg (Coxsackie virus B1 [3]; [6]): 40%

COc1cc(O)c2c(=O)c(OC)c(-c3ccc(OC(=O)C(C)(C)C)c(OC)c3)oc2c1 [5-hydroxy-3,3',7-trimethoxy-4'-(pivaloyloxy)-flavone]
IC50 (rhinovirus HGP; [4]): 0.3 µg/mL (≈ 0.7 µM) | IC50 (Coxsackie virus B1 [2]; [9]): 0.3 to 1 µg/mL (≈ 0.7 to 2.33 µM)

COc1ccc(-c2oc3cc(OC)cc(O)c3c(=O)c2OC)cc1 [5-hydroxy-3,4',7-trimethoxyflavone]
IC50 (rhinovirus HGP; [4]): 1 µg/mL (≈ 3.05 µM) | IC50 (Coxsackie virus B1 [2]; [9]): > 8 µg/mL

COc1cc(O)c2c(=O)c(OC)c(-c3ccc(OC(=O)[C@@H](N)CCCCN)c(OC)c3)oc2c1 [5-hydroxy-4'-(L-lysyloxy)-3,3',7-trimethoxyflavone]
IC50 (rhinovirus HGP; [4]): 0.25 µg/mL (≈ 0.529 µM) | IC50 (Coxsackie virus B1 [2]; HeLa): 0.25 µg/mL (≈ 0.529 µM) | responders at 10 mg/kg (Coxsackie virus B1 [3]; [10]): 54% | LD50 at 504 h (acute toxicity in mice; [7]): 1000 mg/kg | LD50 at 504 h (acute toxicity in mice; [8]): > 5000 mg/kg

NC12CC3CC(CC(C3)C1)C2 [amantadine, reference compound]
Survivals (%) (influenzavirus A2/Adachi; 20 mg/kg × 9, i.p.): 0% | Survivals (influenzavirus A2/Adachi; 40 mg/kg × 9, i.p.): 2/7 | Survivals (%) (influenzavirus A2/Adachi; 40 mg/kg × 9, i.p.): 29%
